Patent publication US20210235704A9, “Combinations of Lipo-Chitooligosaccharides and Methods for Use in Enhancing Plant Growth” (NOVOZYMES BIOAG A/S, priority 2011, published 2021)

Tested on: Florida petite cherry tomato plants
Assay: LCO foliar application on cherry tomato (greenhouse)
Type: in vivo
Conditions: at the end of harvest, compared to control treatment; FIG. 11
Description: Based on the findings from the soybean LCO and the alfalfa LCO combination in Siratro (example 1), further investigation was conducted on tomato. Florida petite cherry tomato plants were grown from seeds in greenhouse plastic containers and sprayed with soy LCO or its combination with alfalfa LCO during the initiation of flower buds at 5 ml/plant application rate. A second spry was also applied one week after the first application. At different maturity, leaf greenness, flower number, fruit number and final fruit fresh weight were measured.

## LCO-V(C18:1, MeFuc), MOR116 [soy LCO]
  average fruit number per plant: significantly higher
